# Like-named read-outs stand apart in the source and are kept apart here.
# Tests used:
# Assay type in all cases: in vivo
# [1] = system: wheat (Triticum aestivum); assay: Test A pre-/postemergence: wheat; conditions: Triticum aestivum, 240 h; for plant injury at 125 g/ha: 125 g ai/ha; for plant injury at 500 g/ha: 500 g ai/ha
# Procedure, shortened: (§1)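 Injury was scored visually on a 0 (no effect) to 100 (complete control) scale versus untreated controls roughly ten days after treatment in the greenhouse. Compounds, formulated in surfactant-containing non-phytotoxic solvent, went on as soil-directed preemergence spray or postemergence to one- to two-leaf plants 2–10 cm tall.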
# [2] = system: large crabgrass (Digitaria sanguinalis); assay: Test C pre-/postemergence: large crabgrass
# Text: (§2) Seeds of plant species selected from blackgrass (Alopecurus myosuroides), bromegrass, downy (downy bromegrass, Bromus tectorum), foxtail, green (green foxtail, Setaria viridis), ryegrass, Italian (Italian ryegrass, Lolium multiflorum), winter wheat (Triticum aestivum), wild oat (Avena fatua), galium (catchweed bedstraw, Galium aparine), bermudagrass (Cynodon dactylon), surinam grass (Brachiaria decumbens), cocklebur (common cocklebur, Xanthium strumarium), corn (Zea mays), large crabgrass (Digitaria sanguinalis), woolly cupgrass (Eriochloa villosa), foxtail, giant (giant foxtail, Setaria faberii), goosegrass (Eleusine indica), johnsongrass (Sorghum halepense), kochia (Kochia scoparia), lambsquarters (Chenopodium album), morningglory (Ipomoea coccinea), nightshade (eastern black nightshade, Solanum ptycanthum), nutsedge, yellow (yellow nutsedge, Cyperus esculentus), pigweed (Amaranthus retroflexus), ragweed (common ragweed, Ambrosia elation), soybean (Glycine max), common (oilseed) sunflower (Helianthus annuus), Russian thistle (Salsola kali) and velvetleaf (Abutilon theophrasti) were planted into a blend of loam soil and sand and treated preemergence with test chemicals formulated in a non-phytotoxic solvent mixture which included a surfactant.
# (§3) At the same time, plants selected from these crop and weed species and also barley (winter barley, Hordeum vulgare), canarygrass (Phalaris minor), chickweed (common chickweed, Stellaria media) windgrass (Apera spica-venti) and deadnettle (henbit deadnettle, Lamium amplexicaule) were planted in pots containing Redi-Earth® planting medium (Scotts Company, 14111 Scottslawn Road, Marysville, Ohio 43041) comprising spaghnum peat moss, vermiculite, wetting agent and starter nutrients and treated with postemergence applications of test chemicals formulated in the same manner. Plants ranged in height from 2 to 18 cm (1- to 4-leaf stage) for postemergence treatments.
# (§4) Treated plants and controls were maintained in a greenhouse for 13 to 15 days, after which time all species were compared to controls and visually evaluated. Plant response ratings, summarized in Table C, are based on a scale of 0 to 100 where 0 is no effect and 100 is complete control. A dash (-) response means no test result.
# [3] = system: morningglory (Ipomoea spp.); assay: Test A pre-/postemergence: morningglory; conditions: Ipomoea, 240 h; for pest or weed control at 125 g/ha: 125 g ai/ha; for pest or weed control at 500 g/ha: 500 g ai/ha
# Procedure, shortened: as §1
# [4] = system: ryegrass, Italian (Italian ryegrass, Lolium multiflorum); assay: Test C pre-/postemergence: ryegrass, Italian
# Text: as §2, §3, §4
# [5] = system: pigweed (Amaranthus retroflexus); assay: Test C pre-/postemergence: pigweed
# Procedure, shortened: (§5)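 Preemergence on seeds in loam/sand, postemergence on 2–18 cm (1–4-leaf) plants in peat-based medium; compounds in non-phytotoxic solvent with surfactant. After 13–15 days in greenhouse, visual rating versus controls, 0 (no effect) to 100 (complete control).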
# soybean (Glycine max) = assay: Test C pre-/postemergence: soybean
# Procedure, shortened: as §5
# [6] = system: blackgrass (Alopecurus myosuroides); assay: Test C pre-/postemergence: blackgrass
# Procedure, shortened: as §5
# corn (Zea mays) = assay: Test A pre-/postemergence: corn; conditions: Zea mays, 240 h
# Procedure, shortened: as §1
# [7] = system: barnyardgrass (Echinochloa crus-galli); assay: Test A pre-/postemergence: barnyardgrass; conditions: Echinochloa crus-galli, 240 h; for pest or weed control at 125 g/ha: 125 g ai/ha; for pest or weed control at 500 g/ha: 500 g ai/ha
# Procedure, shortened: as §1
# [8] = system: nutsedge, yellow (yellow nutsedge, Cyperus esculentus); assay: Test C pre-/postemergence: nutsedge, yellow
# Procedure, shortened: as §5
# [9] = system: johnsongrass (Sorghum halepense); assay: Test C pre-/postemergence: johnsongrass
# Text: as §2, §3, §4
# [10] = Postemergence, 16 g ai/ha, scale 0 to 100, 0 no effect, 100 complete control
# [11] = Postemergence, 31 g ai/ha, scale 0 to 100 (0 no effect, 100 complete control)
# [12] = Postemergence, 62 g ai/ha, scale 0 to 100 (0 no effect, 100 complete control)
# [13] = Postemergence, 125 g ai/ha, scale 0 to 100, 0 no effect, 100 complete control
# [14] = Preemergence, 16 g ai/ha, scale 0 (no effect) to 100 (complete control)
# [15] = Preemergence, 31 g ai/ha, scale of 0 to 100, 0 is no effect, 100 is complete control
# [16] = Preemergence, 62 g ai/ha, scale of 0 to 100, 0 is no effect, 100 is complete control
# [17] = Preemergence, 125 g ai/ha, scale 0 to 100, 0 no effect, 100 complete control
smiles,measurement,setting,value
"COc1nn(-c2ccc(C(F)(F)F)cc2)nc1Cc1ccnc(C(F)(F)F)c1 [Compound 15, 4-[[5-methoxy-2-[4-(trifluoromethyl)phenyl]-2H-1,2,3-triazol-4-yl]methyl]-2-(trifluoromethyl)pyridine]",plant injury at 125 g/ha,"[1]; post-emergence, Postemergence, 0 to 100 scale, 0 is no effect, 100 is complete control, read-out: Wheat plant response rating",30%
same,plant injury at 500 g/ha,"[1]; post-emergence, Postemergence, visual rating on 0 to 100 scale (0 no effect, 100 complete control), approximately ten days, read-out: Wheat plant response rating",50%
same,plant injury at 125 g/ha,"[1]; pre-emergence, Preemergence, 0 to 100 scale (0 no effect, 100 complete control), read-out: Plant response rating, Wheat",30%
same,plant injury at 500 g/ha,"[1]; pre-emergence, Preemergence, 0 to 100 scale, 0 is no effect, 100 is complete control, read-out: Plant response rating, Wheat",50%
same,"Plant response rating, Crabgrass, Large",[2]; [10],5
same,"Plant response rating, Crabgrass, Large",[2]; [11],15
same,"Plant response rating, Crabgrass, Large",[2]; [12],45
same,"Plant response rating, Crabgrass, Large",[2]; [13],60
same,"Plant response rating, Crabgrass, Large",[2]; [14],98
same,"Plant response rating, Crabgrass, Large",[2]; [15],100
same,"Plant response rating, Crabgrass, Large",[2]; [16],100
same,"Plant response rating, Crabgrass, Large",[2]; [17],100
same,pest or weed control at 125 g/ha,"[3]; post-emergence, Postemergence, 0 to 100 scale, 0 is no effect, 100 is complete control, read-out: Morningglory plant response rating",100%
same,pest or weed control at 500 g/ha,"[3]; post-emergence, Postemergence, visual rating on 0 to 100 scale (0 no effect, 100 complete control), approximately ten days, read-out: Morningglory plant response rating",100%
same,pest or weed control at 125 g/ha,"[3]; pre-emergence, Preemergence, 0 to 100 scale (0 no effect, 100 complete control), read-out: Plant response rating, Morningglory",60%
same,pest or weed control at 500 g/ha,"[3]; pre-emergence, Preemergence, 0 to 100 scale, 0 is no effect, 100 is complete control, read-out: Plant response rating, Morningglory",80%
same,"Plant response rating, Ryegrass, Italian",[4]; [10],10
same,"Plant response rating, Ryegrass, Italian",[4]; [11],30
same,"Plant response rating, Ryegrass, Italian",[4]; [12],45
same,"Plant response rating, Ryegrass, Italian",[4]; [13],60
same,"Plant response rating, Ryegrass, Italian",[4]; [14],10
same,"Plant response rating, Ryegrass, Italian",[4]; [15],40
same,"Plant response rating, Ryegrass, Italian",[4]; [16],45
same,"Plant response rating, Ryegrass, Italian",[4]; [17],80
same,"Plant response rating, Pigweed",[5]; [10],5
same,"Plant response rating, Pigweed",[5]; [11],60
same,"Plant response rating, Pigweed",[5]; [12],70
same,"Plant response rating, Pigweed",[5]; [13],90
same,"Plant response rating, Pigweed",[5]; [14],98
same,"Plant response rating, Pigweed",[5]; [15],100
same,"Plant response rating, Pigweed",[5]; [16],100
same,"Plant response rating, Pigweed",[5]; [17],100
same,"Plant response rating, Soybean",soybean (Glycine max); [10],10
same,"Plant response rating, Soybean",soybean (Glycine max); [11],10
same,"Plant response rating, Soybean",soybean (Glycine max); [12],35
same,"Plant response rating, Soybean",soybean (Glycine max); [13],45
same,"Plant response rating, Soybean",soybean (Glycine max); [14],0
same,"Plant response rating, Soybean",soybean (Glycine max); [15],0
same,"Plant response rating, Soybean",soybean (Glycine max); [16],0
same,"Plant response rating, Soybean",soybean (Glycine max); [17],25
same,"Plant response rating, Blackgrass",[6]; [10],20
same,"Plant response rating, Blackgrass",[6]; [11],30
same,"Plant response rating, Blackgrass",[6]; [12],60
same,"Plant response rating, Blackgrass",[6]; [13],80
same,"Plant response rating, Blackgrass",[6]; [14],15
same,"Plant response rating, Blackgrass",[6]; [15],50
same,"Plant response rating, Blackgrass","[6]; Preemergence, 62 g ai/ha, scale 0 to 100, 0 no effect, 100 complete control",85
same,"Plant response rating, Blackgrass",[6]; [17],95
same,plant injury at 125 g/ha,"corn (Zea mays); post-emergence, Postemergence, 125 g ai/ha, 0 to 100 scale, 0 is no effect, 100 is complete control, read-out: Corn plant response rating",30%
same,plant injury at 500 g/ha,"corn (Zea mays); post-emergence, Postemergence, 500 g ai/ha, visual rating on 0 to 100 scale (0 no effect, 100 complete control), approximately ten days, read-out: Corn plant response rating",50%
same,"Corn plant response rating (crop injury, 0 = no effect, 100 = complete kill) at 125 g/ha","corn (Zea mays); pre-emergence, Preemergence, 125 g ai/ha, 0 to 100 scale (0 no effect, 100 complete control)",20%
same,"Corn plant response rating (crop injury, 0 = no effect, 100 = complete kill) at 500 g/ha","corn (Zea mays); pre-emergence, Preemergence, 500 g ai/ha, 0 to 100 scale, 0 is no effect, 100 is complete control",50%
same,pest or weed control at 125 g/ha,"[7]; post-emergence, Postemergence, 0 to 100 scale, 0 is no effect, 100 is complete control, read-out: Barnyardgrass plant response rating",90%
same,pest or weed control at 500 g/ha,"[7]; post-emergence, Postemergence, visual rating on 0 to 100 scale (0 no effect, 100 complete control), approximately ten days, read-out: Barnyardgrass plant response rating",90%
same,pest or weed control at 125 g/ha,"[7]; pre-emergence, Preemergence, 0 to 100 scale (0 no effect, 100 complete control), read-out: Plant response rating, Barnyardgrass",100%
same,pest or weed control at 500 g/ha,"[7]; pre-emergence, Preemergence, 0 to 100 scale, 0 is no effect, 100 is complete control, read-out: Plant response rating, Barnyardgrass",100%
same,"Plant response rating, Nutsedge, Yellow",[8]; [10],0
same,"Plant response rating, Nutsedge, Yellow",[8]; [11],0
same,"Plant response rating, Nutsedge, Yellow",[8]; [12],0
same,"Plant response rating, Nutsedge, Yellow",[8]; [13],0
same,"Plant response rating, Nutsedge, Yellow",[8]; [14],0
same,"Plant response rating, Nutsedge, Yellow",[8]; [15],0
same,"Plant response rating, Nutsedge, Yellow",[8]; [16],0
same,"Plant response rating, Nutsedge, Yellow",[8]; [17],10
same,"Plant response rating, Johnsongrass",[9]; [10],0
same,"Plant response rating, Johnsongrass",[9]; [11],45
same,"Plant response rating, Johnsongrass",[9]; [12],60
same,"Plant response rating, Johnsongrass",[9]; [13],80
same,"Plant response rating, Johnsongrass",[9]; [14],15
same,"Plant response rating, Johnsongrass",[9]; [15],55
same,"Plant response rating, Johnsongrass",[9]; [16],85
same,"Plant response rating, Johnsongrass",[9]; [17],90
